Assay results: patent US12263140B1, “Methods of reducing the production of greenhouse gases from animals” (AGRICULTURAL SCIENCES LIMITED, priority 2023, dated 2025)

Legend:
sheep = test: Sheep exhalant breath trial after vitamin K1 drench (Douglas Bag type apparatus, Micro GC); type: in vivo
Method: The sheep tested in this trial were ewe sheep. In this and all subsequent sheep trials, the sheep were yarded for 24 hours before the trial commenced, so their rumen was at least partially empty since they could not eat when yarded. In total, 60 sheep were tested in similar trials on two different sheep farms. The sheep in each trial were divided randomly into two equal groups, one group being an experimental group and the other group being a control group.
The sheep were driven into a race and each individual was drenched as they came to the end of the race. Sheep in the experimental group and control group were given a 50 ml drench prior to yard release and normal grazing and behaviour.
The sheep were let out to feed in a field and allowed to graze on grass freely. They were herded back at intervals and their exhalant breath captured. The breath exhalation of sheep was measured using the apparatus shown in FIG. 4, according to one or more embodiments, being an instrument based on Douglas Bag equipment for the sampling of exhalant breath from humans. Note that the air space in the tubes shown in FIG. 4 is exaggerated in the drawing, according to one or more embodiments. In reality, the air space may be kept to as small a volume as possible to avoid contamination of the exhalant breath with the dead air in the tubes. The gas impermeable bag used for exhalant breath capture must be as big as possible since methane is largely released periodically as a burp rather than in the exhalant breath.
The apparatus of FIG. 4 was designed specifically for use on sheep, according to one or more embodiments. On inspiration by the sheep, the valve opens and the sheep is able to breath in fresh air. On exhalation by the sheep, the valve closes and the exhaled air is directed in to the gas impermeable balloon. It is important that the balloon used is not expanded by the exhaled air, but is merely collected. Otherwise, back pressure may develop which has the potential to interfere with the breathing of the sheep. The valve could be either a flap valve or a table tennis ball. The latter was identified by the inventor as an ideal light weight valve.
The breath exhalant collected was analysed using an Agilent Micro GC with 2 dual columns: molecular sieve 5A and Plot-Q columns.
The six control sheep were drenched with 50 ml of 30% ethyl alcohol plus 50 ml water.
In this trial, the same trial was completed as in Example 3 above however, in this trial male sheep (rams) were trialed and the exhalant breath of the trial animals was tested over a time period of two days, samples taken on day 0, 1 and 2. Five rams were drenched with vitamin K1 and four rams were not drenched at all and used as controls.

cow pats (faeces) = test: Fermentation of cow pats from cows drenched with vitamin K1; type: in vivo; settings: FIG. 9; no vitamin K1 added to the cow pats
Method: The cows in both fields were of the same breed and provenance.
The resulting cow pat samples were fermented using the apparatus described in Example 1 and FIG. 1 and gas produced collected and tested. Vitamin K1 was not added to the cow pats.
An qualitative test was also completed where the smell of the gases in the fermentation chambers were assessed at the end of fermentation.

[1] = system: rumen fluid from live cows; test: Fermentation of dried grass with rumen fluid from fistulated cows that drank dilute vitamin K1 solution; type: in vivo, cow; settings: drinking water, 100 ml of tincture to 20 litres of water
From the text: The collected rumen fluid was then fermented with dried grass in the fermenter described in Example 1 and FIG. 1.

pig faeces = test: Fermentation of diluted pig faeces; type: cell-based; settings: 1% steep fluid
Method: Fresh pig faeces samples were mixed with an equal volume of distilled water.
Six 50 ml fermentation tubes were used in the fermentation experiment.
The controls were […] fermentation tubes filled to the top with diluted pig faeces.
The fermentation tubes were gently agitated in a water bath held in the dark at 36° C.

CC1=C(C/C=C(\C)CCC[C@H](C)CCC[C@H](C)CCCC(C)C)C(=O)c2ccccc2C1=O [vitamin K1]
emitted methane in exhalant breath (sheep; ewes drenched with tincture plus water, versus control sheep): significant reduction
ill effects after dosing (sheep; ewes, drench): did not show any ill effects
percentage decrease in methane production compared to control sheep (sheep; rams, drench, day 2): 71%
amount of emitted gasses, carbon dioxide and methane (sheep; treated versus control sheep): marked lessening
vitamin K1 effect on gas production carried through to faeces (cow pats (faeces)): still active in the faeces
reduction in carbon dioxide production [1]: approximately 29%
reduction in methane production [1]: approximately 20%
reduction in total gas production [1]: approximately 25%
emission of methane gas from faeces (pig faeces): completely inhibited
